Measurements reported in ChEMBL document CHEMBL6096738, “Optimization of Single Relaxin B-Chain Peptide Leads to the Identification of R2R01, a Potent, Long-Acting RXFP1 Agonist for Cardiovascular and Renal Diseases” (J Med Chem, 2025).
Starred links: 1 amine or outer side, 2 acyl side, 3 side chain; linkers in the order of their positions; H or OH if unused. Non-standard residues stand in square brackets, D forms with d. Residues, ends and D or L forms follow the SMILES beside them. Groups on a side chain read outwards from the residue. *: point of attachment. X2 = CCCCCCCCCCCCCCCC(=O)N[C@@H](CCC(=O)N[C@@H](CCC(=O)N[C@@H](CCC(=O)NCCCOCCOCCOCCCNC(=O)CCC(=O)NCCCOCCOCCOCCCNC(=O)CCC(=O)NCCCOCCOCCOCCCN*)C(=O)O)C(=O)O)C(=O)O; γGlu = O=C(O)[C@H](CCC(=O)[*:2])N[*:1]; Palmitoyl = CCCCCCCCCCCCCCCC(=O)*; Suc = O=C(CCC(=O)[*:2])[*:1]; αMeK = C[C@](N)(CCCCN)C(=O)O; Nle = CCCC[C@H](N)C(=O)O; AEEA = NCCOCCOCC(=O)O; Aib = CC(C)(N)C(=O)O

Key:
[1] = Half-life in male Sprague-Dawley rat at 1 mg/kg, iv measured after 198 hrs by LC-HRMS analysis; format: ADME, organism-based; details: in vivo
[2] = target: T1, Relaxin receptor 1 (Homo sapiens) (UniProt Q9HBX9); assay: Agonist activity at human RXFP1 expressed in 2%HSA treated human OVCAR-5 cells assessed as intracellular cAMP accumulation by measuring maximal efficacy incubated for 30 mins with 2% HSA pretreated compound by HTRF assay relative to control; format: functional, cell-based; details: filed as agonist
T1 sequence (whole entry): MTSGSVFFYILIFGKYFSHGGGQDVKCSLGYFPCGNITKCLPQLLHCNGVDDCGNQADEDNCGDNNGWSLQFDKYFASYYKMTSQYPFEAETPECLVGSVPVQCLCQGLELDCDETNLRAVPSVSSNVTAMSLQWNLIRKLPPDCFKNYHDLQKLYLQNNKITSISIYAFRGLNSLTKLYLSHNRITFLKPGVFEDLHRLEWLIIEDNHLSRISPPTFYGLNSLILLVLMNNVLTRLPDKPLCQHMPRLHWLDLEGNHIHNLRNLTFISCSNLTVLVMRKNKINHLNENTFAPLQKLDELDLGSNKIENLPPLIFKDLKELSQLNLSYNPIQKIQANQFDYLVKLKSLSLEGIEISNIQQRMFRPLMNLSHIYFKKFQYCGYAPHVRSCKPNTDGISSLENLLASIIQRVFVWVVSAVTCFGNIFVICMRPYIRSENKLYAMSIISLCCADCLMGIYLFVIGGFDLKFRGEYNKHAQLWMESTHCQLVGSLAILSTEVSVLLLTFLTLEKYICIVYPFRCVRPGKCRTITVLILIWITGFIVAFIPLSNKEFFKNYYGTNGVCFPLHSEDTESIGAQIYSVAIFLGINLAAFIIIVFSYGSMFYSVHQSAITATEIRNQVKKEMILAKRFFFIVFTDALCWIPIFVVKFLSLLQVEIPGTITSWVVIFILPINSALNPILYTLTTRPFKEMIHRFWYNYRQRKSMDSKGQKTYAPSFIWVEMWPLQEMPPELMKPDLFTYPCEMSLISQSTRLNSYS

[3] = Induction of mast cell degranulation in human LAD2 cells assessed as beta-hexosaminidase release by measuring maximal efficacy of 4-methylumbelliferyl N-acetyl-beta-D-glucosaminide hydrolysis at 33 uM incubated for 30 mins by plate reader analysis relative to control; format: toxicity, cell-based; details: probe 4-methylumbelliferyl N-acetyl-beta-D-glucosaminide
[4] = Induction of mast cell degranulation in human LAD2 cells assessed as beta-hexosaminidase release by measuring 4-methylumbelliferyl N-acetyl-beta-D-glucosaminide hydrolysis incubated for 30 mins by plate reader analysis; format: toxicity, cell-based; details: probe 4-methylumbelliferyl N-acetyl-beta-D-glucosaminide
Relaxin receptor 1 [5] = target: T2, Relaxin receptor 1 (Homo sapiens, UniProt Q9HBX9); assay: Agonist activity at human RXFP1 expressed in 2%HSA treated human OVCAR-5 cells assessed as intracellular cAMP accumulation incubated for 30 mins with 2% HSA pretreated compound by HTRF assay; format: functional, cell-based
T2 sequence (Q9HBX9 whole entry): T1 sequence (whole entry)

[6] = target: T1, Relaxin receptor 1 (Homo sapiens); assay: Agonist activity at human RXFP1 expressed in human OVCAR-5 cells assessed as intracellular cAMP accumulation by measuring maximal efficacy incubated for 30 mins by HTRF assay relative to control; format: functional, cell-based; details: filed as agonist
Relaxin receptor 1 [7] = target: T2, Relaxin receptor 1; assay: Agonist activity at human RXFP1 expressed in human OVCAR-5 cells assessed as intracellular cAMP accumulation incubated for 30 mins by HTRF assay; format: functional, cell-based
[8] = Induction of mast cell degranulation in human LAD2 cells assessed as beta-hexosaminidase release by measuring maximal efficacy of 4-methylumbelliferyl N-acetyl-beta-D-glucosaminide hydrolysis at 100 uM incubated for 30 mins by plate reader analysis relative to control; format: toxicity, cell-based; details: probe 4-methylumbelliferyl N-acetyl-beta-D-glucosaminide

Row | SMILES | half-life [1] | Emax [2] | EC50 (Relaxin receptor 1 [5]) | Emax [6] | EC50 (Relaxin receptor 1 [7]) | Emax at 0.5 h, 33 µM [3] | EC50 at 30 min [4] | Emax at 0.5 h, 100 µM [8]
1 | CCCCCCCCCCCCCCCC(=O)N[C@H](CCC(=O)N[C@H](CCC(=O)N[C@H](CCC(=O)NCCCOCCOCCOCCCNC(=O)CCC(=O)NCCCOCCOCCOCCCNC(=O)CCC(=O)NCCCOCCOCCOCCCNC(=O)CCC(=O)NCCCC[C@H](NC(=O)[C@H](CO)NC(=O)[C@H](Cc1c[nH]c2ccccc12)NC(=O)[C@@H](NC(=O)[C@H](CO)NC(=O)[C@H](CCC(N)=O)NC(=O)CNC(=O)[C@H](CCC(=O)O)NC(=O)C(C)(C)NC(=O)C(C)(C)NC(=O)[C@@H](NC(=O)[C@H](CCCCNC(C)=O)NC(=O)[C@H](C)NC(=O)[C@H](CCCNC(=N)N)NC(=O)[C@@H](NC(=O)[C@H](CCCCN)NC(=O)[C@H](CCC(=O)O)NC(=O)[C@H](CCCNC(=N)N)NC(=O)CNC(=O)[C@H](CCC(=O)O)NC(=O)[C@H](CC(C)C)NC(C)=O)C(C)C)[C@@H](C)CC)[C@H](C)O)C(=O)N[C@@H](CCCNC(=N)N)C(=O)N[C@@H](CCCCN)C(=O)N[C@@H](CCCCNC(C)=O)C(N)=O)C(=O)O)C(=O)O)C(=O)O | – | 92% | 0.09 µM | 94% | 0.00038 µM | – | 13.4 µM | 24%
2 | CCCCCCCCCCCCCCCC(=O)N[C@@H](CCC(=O)N[C@@H](CCC(=O)N[C@@H](CCC(=O)NCCCOCCOCCOCCCNC(=O)CCC(=O)NCCCOCCOCCOCCCNC(=O)CCC(=O)NCCCOCCOCCOCCCNC(=O)CCC(=O)NCCCC[C@H](NC(=O)CNC(=O)[C@H](CCC(=O)O)NC(=O)C(C)(C)NC(=O)C(C)(C)NC(=O)[C@@H](NC(=O)[C@H](CCCCNC(C)=O)NC(=O)[C@H](C)NC(=O)[C@H](CCCNC(=N)N)NC(=O)[C@@H](NC(=O)[C@H](CCCCN)NC(=O)[C@H](CCC(=O)O)NC(=O)[C@H](CCCNC(=N)N)NC(=O)CNC(=O)[C@H](CCC(=O)O)NC(=O)[C@H](CC(C)C)NC(C)=O)C(C)C)[C@@H](C)CC)C(=O)N[C@@H](CO)C(=O)N[C@H](C(=O)N[C@@H](Cc1c[nH]c2ccccc12)C(=O)N[C@@H](CO)C(=O)NC(C)(C)C(=O)N[C@@H](CCCNC(=N)N)C(=O)N[C@@H](CCCCN)C(=O)N[C@@H](CCCCNC(C)=O)C(N)=O)[C@@H](C)O)C(=O)O)C(=O)O)C(=O)O (Ac-LEGREKVRAK(Ac)I[Aib][Aib]EGK([Suc-X2])STWS[Aib]RKK(Ac)-NH2) | – | 90% | 0.105 µM | 98% | 0.00135 µM | 67.5% | 5.9 µM | –
3 | CCCCCCCCCCCCCCCC(=O)N[C@@H](CCC(=O)N[C@@H](CCC(=O)N[C@@H](CCC(=O)NCCCOCCOCCOCCCNC(=O)CCC(=O)NCCCOCCOCCOCCCNC(=O)CCC(=O)NCCCOCCOCCOCCCNC(=O)CCC(=O)NCCCC[C@H](NC(=O)[C@H](CCC(N)=O)NC(=O)CNC(=O)[C@H](CCC(=O)O)NC(=O)C(C)(C)NC(=O)C(C)(C)NC(=O)[C@@H](NC(=O)[C@H](CCCCNC(C)=O)NC(=O)[C@H](C)NC(=O)[C@H](CCCNC(=N)N)NC(=O)[C@@H](NC(=O)[C@H](CCCCN)NC(=O)[C@H](CCC(=O)O)NC(=O)[C@H](CCCNC(=N)N)NC(=O)CNC(=O)[C@H](CCC(=O)O)NC(=O)[C@H](CC(C)C)NC(C)=O)C(C)C)[C@@H](C)CC)C(=O)N[C@H](C(=O)N[C@@H](Cc1c[nH]c2ccccc12)C(=O)N[C@@H](CO)C(=O)NC(C)(C)C(=O)N[C@@H](CCCNC(=N)N)C(=O)N[C@@H](CCCCN)C(=O)N[C@@H](CCCCNC(C)=O)C(N)=O)[C@@H](C)O)C(=O)O)C(=O)O)C(=O)O (Ac-LEGREKVRAK(Ac)I[Aib][Aib]EGQK([Suc-X2])TWS[Aib]RKK(Ac)-NH2) | – | – | > 2 µM | 90% | 0.025 µM | – | 12.8 µM | 32%

Now those with a lower EC50 (Relaxin receptor 1 [5]), led by results:

Row | half-life [1] | Emax [2] | EC50 (Relaxin receptor 1 [5]) | Emax [6] | EC50 (Relaxin receptor 1 [7]) | SMILES | Emax at 0.5 h, 33 µM [3] | EC50 at 30 min [4] | Emax at 0.5 h, 100 µM [8]
4 | 7.3 h | 96% | 0.0201 µM | 89% | 0.00027 µM | CCCCCCCCCCCCCCCC(=O)N[C@@H](CCC(=O)N[C@@H](CCC(=O)N[C@@H](CCC(=O)NCCOCCOCC(=O)NCCOCCOCC(=O)NCCOCCOCC(=O)NCCOCCOCC(=O)NCCCC[C@H](NC(=O)[C@H](CCCCNC(C)=O)NC(=O)[C@H](C)NC(=O)[C@H](CCCNC(=N)N)NC(=O)[C@](C)(CCCCN)NC(=O)[C@H](CO)NC(=O)[C@H](Cc1ccccc1)NC(=O)[C@@H](NC(=O)[C@H](CO)NC(=O)[C@H](CCCC)NC(=O)CNC(=O)[C@H](CCC(=O)O)NC(=O)C(C)(C)NC(=O)C(C)(C)NC(=O)[C@@H](NC(=O)[C@H](CCCCNC(C)=O)NC(=O)[C@H](C)NC(=O)[C@H](CCCNC(=N)N)NC(=O)[C@@H](NC(=O)[C@H](CCCCN)NC(=O)[C@H](CCC(=O)O)NC(=O)[C@H](CCCNC(=N)N)NC(=O)CNC(=O)[C@H](CCC(=O)O)NC(=O)[C@H](CC(C)C)NC(C)=O)C(C)C)[C@@H](C)CC)[C@@H](C)O)C(N)=O)C(=O)O)C(=O)O)C(=O)O (Ac-LEGREKVRAK(Ac)I[Aib][Aib]EG[Nle]STFS[αMeK]RAK(Ac)K([AEEA-AEEA-AEEA-AEEA-γGlu-γGlu-γGlu-Palmitoyl])-NH2) | 58% | 3 µM | –
5 | – | 90% | 0.08 µM | 87% | 0.00021 µM | CCCCCCCCCCCCCCCC(=O)N[C@@H](CCC(=O)N[C@@H](CCC(=O)N[C@@H](CCC(=O)NCCCOCCOCCOCCCNC(=O)CCC(=O)NCCCOCCOCCOCCCNC(=O)CCC(=O)NCCCOCCOCCOCCCNC(=O)CCC(=O)NCCCC[C@H](NC(=O)[C@@H](NC(=O)[C@H](CCCCNC(C)=O)NC(=O)[C@H](C)NC(=O)[C@H](CCCNC(=N)N)NC(=O)[C@@H](NC(=O)[C@H](CCCCN)NC(=O)[C@H](CCC(=O)O)NC(=O)[C@H](CCCNC(=N)N)NC(=O)CNC(=O)[C@H](CCC(=O)O)NC(=O)[C@H](CC(C)C)NC(C)=O)C(C)C)[C@@H](C)CC)C(=O)NC(C)(C)C(=O)N[C@@H](CCC(=O)O)C(=O)NCC(=O)N[C@@H](CCC(N)=O)C(=O)N[C@@H](CO)C(=O)N[C@H](C(=O)N[C@@H](Cc1c[nH]c2ccccc12)C(=O)N[C@@H](CO)C(=O)NC(C)(C)C(=O)N[C@@H](CCCNC(=N)N)C(=O)N[C@@H](CCCCN)C(=O)N[C@@H](CCCCNC(C)=O)C(N)=O)[C@@H](C)O)C(=O)O)C(=O)O)C(=O)O (Ac-LEGREKVRAK(Ac)IK([Suc-X2])[Aib]EGQSTWS[Aib]RKK(Ac)-NH2) | – | 13.6 µM | 11%
6 | – | 90% | 0.0686 µM | 95% | 0.00061 µM | CCCCCCCCCCCCCCCC(=O)N[C@@H](CCC(=O)N[C@@H](CCC(=O)N[C@@H](CCC(=O)NCCCOCCOCCOCCCNC(=O)CCC(=O)NCCCOCCOCCOCCCNC(=O)CCC(=O)NCCCOCCOCCOCCCNC(=O)CCC(=O)NCCCC[C@H](NC(=O)[C@H](C)NC(=O)[C@H](CCCNC(=N)N)NC(=O)[C@@H](NC(=O)[C@H](CCCCN)NC(=O)[C@H](CCC(=O)O)NC(=O)[C@H](CCCNC(=N)N)NC(=O)CNC(=O)[C@H](CCC(=O)O)NC(=O)[C@H](CC(C)C)NC(C)=O)C(C)C)C(=O)N[C@H](C(=O)NC(C)(C)C(=O)NC(C)(C)C(=O)N[C@@H](CCC(=O)O)C(=O)NCC(=O)N[C@@H](CCC(N)=O)C(=O)N[C@@H](CO)C(=O)N[C@H](C(=O)N[C@@H](Cc1c[nH]c2ccccc12)C(=O)N[C@@H](CO)C(=O)NC(C)(C)C(=O)N[C@@H](CCCNC(=N)N)C(=O)N[C@@H](CCCCN)C(=O)N[C@@H](CCCCNC(C)=O)C(N)=O)[C@@H](C)O)[C@@H](C)CC)C(=O)O)C(=O)O)C(=O)O (Ac-LEGREKVRAK([Suc-X2])I[Aib][Aib]EGQSTWS[Aib]RKK(Ac)-NH2) | – | 12.5 µM | 40%
